Measured values reported in ChEMBL document CHEMBL5230085, “Design, synthesis, and biological characterization of a new class of symmetrical polyamine-based small molecule CXCR4 antagonists” (Eur J Med Chem, 2020).
Activity calls are given as the source filed them. The rule behind the calls is not given here.

Columns and labels:
[1] = molecular target: T1, C-X-C chemokine receptor type 4 (Homo sapiens, UniProt P61073); experiment: Binding affinity to CXCR4 (unknown origin) expressed in CHO cells incubated for 40 mins by competitive binding assay method; assay type: cell-based
T1 sequence (P61073 whole entry): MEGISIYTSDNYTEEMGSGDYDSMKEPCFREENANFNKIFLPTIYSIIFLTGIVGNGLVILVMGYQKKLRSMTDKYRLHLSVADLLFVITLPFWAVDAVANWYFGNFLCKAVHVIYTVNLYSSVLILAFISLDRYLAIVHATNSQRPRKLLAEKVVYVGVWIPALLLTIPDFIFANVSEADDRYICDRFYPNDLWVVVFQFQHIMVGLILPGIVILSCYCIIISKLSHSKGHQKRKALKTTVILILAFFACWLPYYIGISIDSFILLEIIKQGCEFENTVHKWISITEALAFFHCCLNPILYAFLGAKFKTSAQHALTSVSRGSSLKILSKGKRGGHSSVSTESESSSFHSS

[2] = molecular target: T1, C-X-C chemokine receptor type 4; experiment: Antagonist activity at CXCR4 receptor in SDF-1alpha-stimulated human SUP-T1 cells incubated for 30 mins by calcium mobilization assay; assay type: cell-based
[3] = molecular target: T1, C-X-C chemokine receptor type 4; experiment: Binding affinity to CXCR4 (unknown origin); details: filed as antagonist
CEM-GFP = experiment: Cytotoxicity against human CEM-GFP cells assessed as cell viability at 10 uM incubated for 5 days by Celltiter-blue assay method; assay type: functional, cell-based; details: time 5.0 day
[4] = tested on: C-X-C chemokine receptor type 4 (Homo sapiens), P61073 [D262A]; experiment: Binding affinity to N-terminus CXCR4 D262A mutant (unknown origin)
Chain of C-X-C chemokine receptor type 4 (Homo sapiens), P61073 [D262A] (P61073 whole entry D262A): as the sequence (P61073 whole entry) above, with D262A counted along it

[5] = tested on: C-X-C chemokine receptor type 4 (Homo sapiens), P61073 [E288D]; experiment: Binding affinity to CXCR4 E288D mutant (unknown origin) by competitive binding assay method; details: filed as antagonist
Chain of C-X-C chemokine receptor type 4 (Homo sapiens), P61073 [E288D] (P61073 whole entry E288D): as the sequence (P61073 whole entry) above, with E288D counted along it

[6] = tested on: C-X-C chemokine receptor type 4 (Homo sapiens), P61073 [R30A]; experiment: Binding affinity to N-terminus CXCR4 R30A mutant (unknown origin)
Chain of C-X-C chemokine receptor type 4 (Homo sapiens), P61073 [R30A] (P61073 whole entry R30A): as the sequence (P61073 whole entry) above, with R30A counted along it

[7] = tested on: C-X-C chemokine receptor type 4 (Homo sapiens), P61073 [D193A]; experiment: Binding affinity to CXCR4 D193A mutant (unknown origin) assessed as reduction in potency; design: scale not given: the % may be the effect or the level left; details: filed as antagonist
Chain of C-X-C chemokine receptor type 4 (Homo sapiens), P61073 [D193A] (P61073 whole entry D193A): as the sequence (P61073 whole entry) above, with D193A counted along it

[8] = tested on: C-X-C chemokine receptor type 4 (Homo sapiens), P61073 [H113A]; experiment: Binding affinity to N-terminus CXCR4 H113A mutant (unknown origin)
Chain of C-X-C chemokine receptor type 4 (Homo sapiens), P61073 [H113A] (P61073 whole entry H113A): as the sequence (P61073 whole entry) above, with H113A counted along it

[9] = tested on: C-X-C chemokine receptor type 4 (Homo sapiens), P61073 [E288D]; experiment: Binding affinity to CXCR4 E288D mutant (unknown origin) by 12G5 competitive binding assay
[10] = Antiviral activity against HIV1 NL4-3 infected in human CEM-GFP cells assessed as inhibition in viral growth measured after 5 days by 96-well plate assay method; assay type: functional, cell-based; details: NL4-3, CEM-GFP, 120 h
[11] = tested on: C-X-C chemokine receptor type 4 (Homo sapiens), P61073 [W195A]; experiment: Binding affinity to CXCR4 W195A mutant (unknown origin) assessed as reduction in potency; design: scale not given: the % may be the effect or the level left; details: filed as antagonist
Chain of C-X-C chemokine receptor type 4 (Homo sapiens), P61073 [W195A] (P61073 whole entry W195A): as the sequence (P61073 whole entry) above, with W195A counted along it

SMILES	IC50 [1] [nM]	other results
O=[N+]([O-])c1cc(CNCCCNC2CCCCC2)ccc1CNCCCNC1CCCCC1	354	–
c1cc(CNCCCNC2CCCCC2)nc(CNCCCNC2CCCCC2)c1	122	–
CN(C)c1cc(CNCCCNC2CCCCC2)ccc1CNCCCNC1CCCCC1	48	–
Nc1cc(CNCCCNC2CCCCC2)ccc1CNCCCNC1CCCCC1	68.9	–
c1cc(CNCCCNC2CCCCC2)ccc1CNCCCNC1CCCCC1	19.8	IC50 [2]: 119 nM; Activity [3]: 60%; Activity (CEM-GFP): Not toxic; Activity [4]: inactive; Activity [5]: 40%; Activity [6]: inactive; Activity [7]: 10%; Activity [8]: inactive; Activity [9]: 30%; IC50 [10]: 1500 nM; Activity [11]: 10%
c1c(CNCCCNC2CCCCC2)cc(CNCCCNC2CCCCC2)cc1CNCCCNC1CCCCC1	312	–
c1cc(CNCCCNC2CCCCC2)cc(CNCCCNC2CCCCC2)c1	155	–
O=[N+]([O-])c1cc(CNCCCNC2CCCCC2)cc(CNCCCNC2CCCCC2)c1	147	–
c1ccc(CNCc2ccc(CNCc3ccccn3)cc2)nc1	> 10000	–
c1cc(-c2ccc(CNCCCNC3CCCCC3)cc2)ccc1CNCCCNC1CCCCC1	67.5	–

Now from value to molecule, other results behind:

IC50 [1] [nM]	SMILES	other results
699	O=C(NCCCNC1CCCCC1)c1ccc(CNCCCNC2CCCCC2)cc1	–
119	CN(C)c1cc(CNCCCNC2CCCCC2)cc(CNCCCNC2CCCCC2)c1	–
40.8	c1ccc2c(CNCCCNC3CCCCC3)ccc(CNCCCNC3CCCCC3)c2c1	–
> 10000	c1cc(CNC2CCCCC2)ccc1CNC1CCCCC1	–
67.6	CNc1cc(CNCCCNC2CCCCC2)cc(CNCCCNC2CCCCC2)c1	–
81.2	Nc1cc(CNCCCNC2CCCCC2)cc(CNCCCNC2CCCCC2)c1	–
1700	O=C(NCCCNC1CCCCC1)c1ccc(C(=O)NCCCNC2CCCCC2)cc1	–
194	c1cc(CNCCCNC2CCCCC2)ncc1CNCCCNC1CCCCC1	–
